Results as given in ChEMBL document CHEMBL6087400, “Synthesis and Biological Evaluation of New Chalcogen Semicarbazone (S, Se) and Their Azole Derivatives against Chagas Disease” (J Med Chem, 2024).
Activity calls are given as the source filed them. No cut-off for these calls is given here.

Key:
Trypanosoma cruzi = experiment: Anti-trypanosomal activity against Trypanosoma cruzi CAI/72 infected in mouse C2C12 cells at 10 uM incubated for 48 hrs relative to control; type: functional
[1] = biological target: Cruzipain (Trypanosoma cruzi) (UniProt P25779); experiment: Inhibition of Trypanosoma cruzi cruzain using Z-FR-AMC as substrate measured after 10 mins relative to control
C2C12 [2] = experiment: Cytotoxicity against mouse C2C12 cells assessed as reduction in cell viability at 10 uM incubated for 72 hrs by DAPI staining based microscopic analysis relative to control; type: toxicity; conditions: c2c12, 72 h
C2C12 [3] = experiment: Cytotoxicity against mouse C2C12 cells assessed as reduction in cell viability at 3 uM incubated for 72 hrs by DAPI staining based microscopic analysis relative to control; type: toxicity; conditions: c2c12, 72 h
[4] = Selectivity index, ratio of CC50 for mouse C2C12 cells to EC50 for Trypanosoma cruzi CAI/72 intracellular amastigotes; type: toxicity, cell-based; conditions: read-out: Selectivity Index
[5] = Antioxidant activity assessed as inhibition of DPPH radical scavenging activity at 0.06 mg/ml measured after 2 hrs by absorbance based analysis relative to control; type: functional; set-up: scale not given: the % may be the effect or the level left
[6] = Antioxidant activity assessed as inhibition of DPPH radical scavenging activity at 0.03 mg/ml measured after 2 hrs by absorbance based analysis relative to control; type: functional; set-up: scale not given: the % may be the effect or the level left
[7] = Antioxidant activity assessed as inhibition of DPPH radical scavenging activity at 0.015 mg/ml measured after 2 hrs by absorbance based analysis relative to control; type: functional; set-up: scale not given: the % may be the effect or the level left
[8] = Half life in female Balb/c mouse at 50 mg/kg, po by mass spectrometry; type: ADME, organism-based; conditions: in vivo
C2C12 [9] = experiment: Cytotoxicity against mouse C2C12 cells assessed as reduction in cell viability at 40 uM incubated for 72 hrs by DAPI staining based microscopic analysis relative to control; type: toxicity; conditions: c2c12, 72 h

Sequence of Cruzipain (Trypanosoma cruzi) (P25779 123-467 limits assumed): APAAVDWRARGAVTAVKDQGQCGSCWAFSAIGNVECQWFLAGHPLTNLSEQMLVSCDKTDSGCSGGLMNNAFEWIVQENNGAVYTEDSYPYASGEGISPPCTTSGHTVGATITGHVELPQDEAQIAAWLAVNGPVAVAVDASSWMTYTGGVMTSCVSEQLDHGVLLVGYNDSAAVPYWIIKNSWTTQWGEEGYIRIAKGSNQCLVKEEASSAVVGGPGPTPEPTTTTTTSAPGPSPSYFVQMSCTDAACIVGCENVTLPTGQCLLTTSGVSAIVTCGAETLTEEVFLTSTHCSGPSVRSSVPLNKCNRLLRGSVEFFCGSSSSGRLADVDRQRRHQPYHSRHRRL

C/C(=N\Nc1nc(C)cs1)c1ccc([N+](=O)[O-])cc1
Activity (Trypanosoma cruzi): inactive

C/C(=N\NC(N)=S)[C@]12CC3C[C@@H](C[C@H](C3)C1)C2
inhibition [1]: 5.06%

C/C(=N\NC(N)=S)C12CC3C[C@H](C1)C[C@H](C3)C2
Activity (C2C12 [2]): > 100%
Activity (Trypanosoma cruzi): 38.73%

CN1CCN(C(=O)N[C@@H](Cc2ccccc2)C(=O)N[C@H](/C=C/S(=O)(=O)c2ccccc2)CCc2ccccc2)CC1 [K-777]
Activity (C2C12 [3]): > 100%

C/C(=N\NC(N)=S)c1cccc(Cl)c1
selectivity ratio [4]: ~1

COc1ccc(/C(C)=N/Nc2nc(C)c[se]2)c(OC)c1
inhibition [1]: inactive

C/C(=N\Nc1nc(C)c[se]1)C12CC3CC(CC(C3)C1)C2
inhibition [1]: inactive

COc1cccc(/C(C)=N/Nc2nc(C)c[se]2)c1
selectivity ratio [4]: > 3.75

C/C(=N\NC(N)=S)c1ccsc1
Activity (C2C12 [2]): > 100%
inhibition [1]: 62.8%
Activity (Trypanosoma cruzi): 10.89%

C/C(=N\NC(N)=S)c1ccc(C#N)cc1
Activity (C2C12 [2]): > 100%
inhibition [1]: 98.8%
Activity (Trypanosoma cruzi): 31.58%

C/C(=N\NC(N)=[Se])c1ccc(Br)cc1
selectivity ratio [4]: > 13

C/C(Cc1cccc(Cl)c1)=N\NC(N)=S
selectivity ratio [4]: > 3.42

COc1ccc(/C(C)=N/NC(N)=[Se])c(OC)c1
Activity (Trypanosoma cruzi): inactive

C/C(=N\Nc1nc(C)c[se]1)c1ccsc1
inhibition [1]: inactive
selectivity ratio [4]: > 2.68

C/C(=N\NC(N)=[Se])c1ccc(F)c(F)c1
Activity (Trypanosoma cruzi): inactive

C/C(=N\Nc1nc(C)c[se]1)c1cccc(Cl)c1
selectivity ratio [4]: > 19

C/C(=N\Nc1nc(C)c[se]1)c1cccc([N+](=O)[O-])c1.Cl
Activity [5]: 78.3%
Activity [6]: 78%
Activity [7]: 77.3%
half-life [8]: 1 h
selectivity ratio [4]: > 32.5

C/C(=N\Nc1nc(C)cs1)c1ccc(C(F)(F)F)cc1
Activity (Trypanosoma cruzi): inactive

O=C(Cn1ccnc1[N+](=O)[O-])NCc1ccccc1 [BENZNIDAZOLE]
selectivity ratio [4]: > 6.91
Activity (C2C12 [9]): > 100%

O=C1O[C@H]([C@@H](O)CO)C(O)=C1O
Activity [5]: 80.3%
Activity [6]: 80.3%
Activity [7]: 65.3%
